Laboratory results: PubChem BioAssay (NCI)
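How tested: cells in 96-well plates exposed to compound for 48 hours at five concentrations. TGI is the concentration that stops growth completely.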

Assays:
Assay in all cases: NCI-60 cell line screen, 48 h
LXFL 529 NSCLC = system: LXFL 529 NSCLC
DMS 273 small cell lung = system: DMS 273 small cell lung
HOP-18 NSCLC = system: HOP-18 NSCLC
SNB-78 CNS = system: SNB-78 CNS
KM20L2 colon = system: KM20L2 colon
RXF-631 renal = system: RXF-631 renal
XF 498 CNS = system: XF 498 CNS

Measured: TGI

O=[As](O)(O)c1cc(N=Nc2ccc(-c3ccc(N=Nc4cc([As](=O)(O)O)c(O)cc4O)cc3)cc2)c(O)cc1O
> 100 µM: LXFL 529 NSCLC | DMS 273 small cell lung | HOP-18 NSCLC | SNB-78 CNS | KM20L2 colon | RXF-631 renal

C=C1C[C@]23C[C@@]1(O)CC[C@H]2[C@@]12C=C[C@H](O)[C@@](C)(C(=O)O1)[C@H]2[C@@H]3C(=O)O
> 100 µM: DMS 273 small cell lung | SNB-78 CNS | XF 498 CNS | KM20L2 colon

COS(=O)c1cc(Cl)cc(Cl)c1O (configuration not stated)
> 100 µM: LXFL 529 NSCLC | XF 498 CNS
